{"source": "patent US11197811B2", "about": "“Teeth whitening methods, visually perceptible signals and compositions therefor” (Colgate-Palmolive Company, priority 2012, dated 2021)", "key": {"[1]": {"test": "Clarity of gel phase by UV/VIS absorbance", "type": "physicochemical", "details": "original oral gel, 0.5% (w/w) zinc level; for Absorbance: 610 nm, DI water blank", "experimental": "Four 500.0 g gel phase batches which contain NaF (control), ZLC, ZnCl2 and ZnO as active ingredient are formulated with the ingredients shown in Table 8. The clarity of samples with different actives is compared, and the precipitation characteristic of ZLC gel phase by dilution is evaluated. The concentration of zinc ions in ZLC solution is 25300 ppm obtained by ICP, which in terms gives approximately 17% weight of ZLC actives in the solution. Zinc ion concentration in the following batches are all prepared at 0.5% (w/w) zinc level.\n(§1) Lambda 25 UV/VIS Spectrometer (PerkinElmer) is used to obtain absorbance information for all samples in order to compare the clarity of gel phase between different actives. Absorbance is a logarithmic measure of the amount of light that is absorbed when passing through a substance. Since the particles in the gel absorb light, the more particles existing in solution, the more light absorbed by the gel. Thus, a small number of absorbance of a gel indicates a higher clarity. The absorbance is corrected by using deionized (DI) water as the blank solution under the light source wavelength of 610 nm."}, "pH of gel phase batches": {"test": "pH of gel phase batches", "type": "physicochemical", "details": "original oral gel batch"}, "[2]": {"test": "Dilution experiment of gel phase batches (absorbance)", "type": "physicochemical", "details": "for Absorbance, 2 fold dilution: gel phase batch diluted 2 fold; for Absorbance, 4 fold dilution: gel phase batch diluted 4 fold; for Absorbance, 8 fold dilution: gel phase batch diluted 8 fold; for Absorbance, 16 fold dilution: gel phase batch diluted 16 fold; for Absorbance, 32 fold dilution: gel phase batch diluted 32 fold", "from_the_text": "as §1\n(§2) Dilution experiment: All original gel phase batch are diluted into 2 fold, 4 fold, 8 fold, 16 fold and 32 fold. […] This observation confirms the formation of precipitate when ZLC gel is being diluted by water. The pHs of 2 fold, 4 fold, 8 fold, 16 fold, and 32 fold diluted ZLC gel solution are 7.71, 7.91, 8.03, 8.12, and 8.14, respectively."}, "[3]": {"test": "pH of neat and final diluted ZLC solutions", "type": "physicochemical", "experimental": "(§3) A neat solution of ZLC is prepared by 1), reacting 0.5 mole of ZnO powder with 1 mole of lysine HCl in 1 liter of water at room temperature for about 2 hours, and 2) collecting the supernatant through centrifugation followed by filtration using a 0.45 micron membrane. The neat solution has a zinc concentration of 2.39% by weight, and a pH of about 7.03.\n(§4) Dilution experiment is conducted by mixing the neat solution with deionized water. The neat solution is diluted by 2×, 4×, 6×, 7×, 8×, 10×, 12×, 16×, 20×, 24×, 28×, and 32×, corresponding to initial zinc concentrations of 1.20%, 0.598%, 0.398%, 0.341%, 0.299%, 0.239%, 0.199%, 0.149%, 0.120%, 0.0996%, 0.0854%, 0.0747%, by weight, respectively. The diluted samples are kept at 37° C., and the rates at which flocculation/precipitation occurred are monitored.\npH values of final diluted samples are suitable for oral care applications. […] These pH values are well within the range of 5.5 to 10, which defines the suitable range for oral care formulations."}, "[4]": {"test": "Repeated 10 minute treatments of dentine section, confocal imaging", "parameters": "species or system human", "details": "10 minutes at 37° C.; for surface deposition on dentine: 0.0747% zinc", "experimental": "(§5) The deposition/occlusion assay is conducted using human dentine slices and the neat solution of Example 3. The dentine slices are prepared by cutting human tooth into thin dentine sections of about 800 microns in thickness, designating a test side, sanding said test side using a sandpaper of about 600 grit, polishing said test side using a Buehler polishing cloth and 5 micron Buehler aluminum oxide, acid-etching said dentine section in 1% (by weight) citric acid solution for about 20 seconds, sonicating said dentine section for 10 minutes, and storing said dentine section in phosphate buffered saline (PBS, pH 7.4, Gibco Cat. No. 10010).\nA new dentine sections, as prepared following the procedure in Example 4, is repeatedly treated with ZLC dilutions with initial zinc concentration of 0.0747% by weight. […] The dentine section is examined under the confocal microscope after each treatment."}, "[5]": {"test": "pH of diluted ZLC gel solution", "type": "physicochemical", "experimental": "as §2"}, "[6]": {"test": "Spectrophotometric analysis of whitening (CIELAB color reading)", "parameters": "species or system human", "details": "dentine section of Example 4 after third treatment", "experimental": "(§6) For treatment, the neat solution is diluted 16-fold with water, yielding a treatment solution with initial zinc concentration of about 0.149% by weight. The dentine section is immersed in the treatment solution for 1 hour at 37° C. The treated dentine section is then removed from the treatment solution, and rinsed 4 times, each time with 1 mL of PBS. The dentine section is then dried using a paper-based tissue and examined under confocal microscope in both XYZ and XYZ modes. Subsequent treatments are conducted in the same manner.\nSpectrophotometric analysis proves the whitening efficacy of the ZLC treatment. After the third treatment, the dentine section of Example 4 is dried and examined under a Spectroshade™ spectrophotometer (Handy Dental Type 71,3000). The treated dentinal area is included and the enamel rim is excluded from the examination and subsequent data processing. The CIELAB color reading is L*=86.6, a*=−1.7, and b*=1.5. A similarly prepared dentine section without treatment yielded a reading of L*=72.5, a*=−1.9, and b*=10.3. It is commonly understood that, by definition, L*=0 means black and L*=100 indicates diffuse white, negative a* value indicates green while positive values indicate magenta, and negative b* values indicate blue and positive values indicate yellow."}, "[7]": {"test": "Deposition/occlusion assay, confocal imaging", "parameters": "species or system human", "details": "0.149% zinc, 1 hour at 37° C.", "experimental": "as §5, §6\nProgressive deposition and occlusion can be observed via confocal imaging. […] The surface deposits can be 10 microns or more in thickness. […] The surface deposits can be 25 microns or more in thickness."}, "[8]": {"test": "Dilution of neat ZLC solution, flocculation/precipitation monitored", "type": "physicochemical", "details": "37° C.", "experimental": "Various dilutions of ZLC are prepared to evaluate its efficiency in producing visible precipitates and/or flocculation, which can be delivered onto a dental surface (dentine and/or enamel) for whitening benefits.\nas §3, §4"}}}
{"molecule": "[O-2].[Zn+2]", "note": "[ZnO]", "values": [{"measurement": "appearance of gel phase", "setting": "[1]", "result": "not dissolved and is suspended in gel phase"}, {"measurement": "Absorbance", "setting": "[1]", "result": 2.4626}, {"measurement": "pH", "setting": "pH of gel phase batches", "result": 8.30}, {"measurement": "Absorbance, 2 fold dilution", "setting": "[2]", "result": 2.4630}, {"measurement": "Absorbance, 4 fold dilution", "setting": "[2]", "result": 2.5340}, {"measurement": "Absorbance, 8 fold dilution", "setting": "[2]", "result": 2.1883}, {"measurement": "Absorbance, 16 fold dilution", "setting": "[2]", "result": 1.8638}, {"measurement": "Absorbance, 32 fold dilution", "setting": "[2]", "result": 1.0492}]}
{"molecule": "[Zn(C6H14N2O2)2Cl]^+Cl^− [ZLC]", "values": [{"measurement": "final pH value of diluted sample", "setting": "[3]; initial zinc concentration 0.0747%", "result": 7.99}, {"measurement": "final pH value of diluted sample", "setting": "[3]; initial zinc concentration 0.0854%", "result": 8.13}, {"measurement": "final pH value of diluted sample", "setting": "[3]; initial zinc concentration 0.0996%", "result": 8.11}, {"measurement": "final pH value of diluted sample", "setting": "[3]; initial zinc concentration 0.120%", "result": 7.97}, {"measurement": "final pH value of diluted sample", "setting": "[3]; initial zinc concentration 0.149%", "result": 7.99}, {"measurement": "final pH value of diluted sample", "setting": "[3]; initial zinc concentration 0.199 wt %", "result": 6.80}, {"measurement": "final pH value of diluted sample", "setting": "[3]; initial zinc concentration 0.239%", "result": 6.70}, {"measurement": "pH of neat solution", "setting": "[3]; neat solution, zinc concentration 2.39% by weight", "result": "about 7.03"}, {"measurement": "appearance of gel phase", "setting": "[1]", "result": "forms a homogenous solution"}, {"measurement": "Absorbance", "setting": "[1]", "result": 0.1765}, {"measurement": "pH", "setting": "pH of gel phase batches", "result": 7.37}, {"measurement": "surface deposition on dentine", "setting": "[4]; after 4 consecutive treatments", "result": "significant surface deposition"}, {"measurement": "surface deposition on dentine", "setting": "[4]; after 12 consecutive treatments", "result": "complete surface coverage"}, {"measurement": "precipitation by naked eyes during treatment", "setting": "[4]; initial zinc 0.0747%", "result": "no precipitation"}, {"measurement": "pH of diluted ZLC gel solution", "setting": "[5]; 2 fold diluted", "result": 7.71}, {"measurement": "pH of diluted ZLC gel solution", "setting": "[5]; 4 fold diluted", "result": 7.91}, {"measurement": "pH of diluted ZLC gel solution", "setting": "[5]; 8 fold diluted", "result": 8.03}, {"measurement": "pH of diluted ZLC gel solution", "setting": "[5]; 16 fold diluted", "result": 8.12}, {"measurement": "pH of diluted ZLC gel solution", "setting": "[5]; 32 fold diluted", "result": 8.14}, {"measurement": "CIELAB color reading L*", "setting": "[6]; untreated section L*=72.5", "result": 86.6}, {"measurement": "CIELAB color reading a*", "setting": "[6]; untreated section a*=−1.9", "result": "−1.7"}, {"measurement": "CIELAB color reading b*", "setting": "[6]; untreated section b*=10.3", "result": 1.5}, {"measurement": "Absorbance, 2 fold dilution", "setting": "[2]", "result": 0.1436}, {"measurement": "Absorbance, 4 fold dilution", "setting": "[2]", "result": 0.1887}, {"measurement": "Absorbance, 8 fold dilution", "setting": "[2]", "result": 0.1860}, {"measurement": "Absorbance, 16 fold dilution", "setting": "[2]", "result": 0.1336}, {"measurement": "Absorbance, 32 fold dilution", "setting": "[2]", "result": 0.2998}, {"measurement": "deposition and occlusion on dentine surface", "setting": "[7]; first treatment", "result": "noticeable deposition"}, {"measurement": "deposition and occlusion on dentine surface", "setting": "[7]; second treatment", "result": "complete surface coverage, including blocking of substantially all tubule openings"}, {"measurement": "thickness of surface deposits", "setting": "[7]; second treatment", "result": "≥ 10", "unit": "microns"}, {"measurement": "deposition and occlusion on dentine surface", "setting": "[7]; third treatment", "result": "complete surface coverage and complete blocking of tubule openings"}, {"measurement": "thickness of surface deposits", "setting": "[7]; third treatment", "result": "≥ 25", "unit": "microns"}, {"measurement": "time to some visible flocculation from mixing with water", "setting": "[8]; initial zinc concentrations 0.149% and 0.199%", "result": "≤ 30", "unit": "min"}, {"measurement": "flocculation observed", "setting": "[8]; one and a half hours after mixing, initial zinc between 0.0747% and 0.239%", "result": "visible flocculation"}, {"measurement": "flocculation observed", "setting": "[8]; one hour from mixing, initial zinc between 0.0854% and 0.239%", "result": "visible flocculation"}, {"measurement": "flocculation and/or precipitation observed", "setting": "[8]; total of 19 hours, all samples except initial zinc 1.20%", "result": "flocculation and/or precipitation can be observed"}, {"measurement": "relative amount of precipitates", "setting": "[8]; total of 19 hours, initial zinc between 0.0747% and 0.239%", "result": "the most precipitates"}, {"measurement": "flocculation observed", "setting": "[8]; two hours after mixing, initial zinc 0.299%", "result": "presence of flocculation"}]}
{"molecule": "[F-].[Na+]", "note": "[NaF]", "values": [{"measurement": "Absorbance", "setting": "[1]", "result": 0.0344}, {"measurement": "pH", "setting": "pH of gel phase batches", "result": 7.63}, {"measurement": "Absorbance, 2 fold dilution", "setting": "[2]", "result": 0.0106}, {"measurement": "Absorbance, 4 fold dilution", "setting": "[2]", "result": 0.0104}, {"measurement": "Absorbance, 8 fold dilution", "setting": "[2]", "result": 0.0107}, {"measurement": "Absorbance, 16 fold dilution", "setting": "[2]", "result": 0.0075}, {"measurement": "Absorbance, 32 fold dilution", "setting": "[2]", "result": 0.0137}]}
{"molecule": "[Cl-].[Cl-].[Zn+2]", "note": "[ZnCl2]", "values": [{"measurement": "appearance of gel phase", "setting": "[1]", "result": "appears cloudy"}, {"measurement": "Absorbance", "setting": "[1]", "result": 0.9204}, {"measurement": "pH", "setting": "pH of gel phase batches", "result": 5.25}, {"measurement": "Absorbance, 2 fold dilution", "setting": "[2]", "result": 0.7315}, {"measurement": "Absorbance, 4 fold dilution", "setting": "[2]", "result": 0.3700}, {"measurement": "Absorbance, 8 fold dilution", "setting": "[2]", "result": 0.1701}, {"measurement": "Absorbance, 16 fold dilution", "setting": "[2]", "result": 0.0570}, {"measurement": "Absorbance, 32 fold dilution", "setting": "[2]", "result": 0.0280}]}
